From US6124328A, “Methods and compositions for stimulating neurite growth” (Vertex Pharmaceuticals Incorporated, priority 1997, dated 2000) come the findings set out here.

Chain of FKBP12 (P62942 whole entry): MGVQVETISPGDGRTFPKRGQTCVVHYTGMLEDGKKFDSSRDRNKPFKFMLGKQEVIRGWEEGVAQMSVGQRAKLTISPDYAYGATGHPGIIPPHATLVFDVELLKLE

The experiment addresses FKBP12 (Homo sapiens, UniProt P62942). Briefly: FKBP12 Binding Assay: inhibition of FKBP rotomase activity (cis-N-succinyl-Ala-Ala-Pro-Phe-p-nitroanilide / chymotrypsin), apparent Ki. To be noted: Table 2, formula II', compound 0.1 nM-10 μM. The class given is biochemical. The source says: Preferably, the assay measures inhibition of FKBP12 rotomase activity. Such an assay has also been described by M. W. Harding et al., supra and by J. J. Siekierka et al., supra. In this assay the isomerization of an artificial substrate--N-succinyl-Ala-Ala-Pro-Phe-p-nitroanilide--is followed spectrophotometrically. The assay includes the cis form of the substrate, FKBP12, the inhibitor and chymotrypsin. Chymotrypsin is able to cleave p-nitroanilide from the trans form of the substrate, but not the cis form. Release of p-nitroanilide is measured.
In this assay various quantities of FKBP12 binding compound (0.1 nM-10 μM) were added to cis-N-succinyl-Ala-Ala-Pro-Phe-p-nitroanilide in the presence of FKBP12 and chymotrypsin. FKBP12 converts the cis form of the substrate to the trans form. This allows chymotrypsin to cleave p-nitroanilide from the substrate. Release of p-nitroanilide was measured spectrophotometrically.
For `COc1cc(C(=O)C(=O)N2CCCC[C@H]2C(=O)OC(C)c2ccc(OCc3ccncc3)c(OCc3ccncc3)c2OC(C)C)cc(OC)c1OC` (stereo partly shown) [compound 85], the Ki stood at 3.5 nM.

`COc1cc(C(=O)C(=O)N2CCC[C@H]2C(=O)OC(C)c2cc(OCc3ccncc3)c(OCc3ccncc3)c(OCc3ccncc3)c2)cc(OC)c1OC` (stereo partly shown) [compound 86]: the Ki was 280 nM.

Regarding `COc1cc(C(=O)C(=O)N2CCC[C@H]2C(=O)OC(C)c2cc(OCc3ccncc3)c(OCc3ccncc3)c(OCc3ccncc3)c2)cc(OC)c1OC` (stereo partly shown) [compound 87], the Ki was determined as 360 nM.

Turning to `COc1cc(C(=O)C(=O)N2CCCC[C@H]2C(=O)OC(C)c2cc(OCc3ccccc3)c(OCc3ccccc3)c(OCc3ccccc3)c2)cc(OC)c1OC` (stereo partly shown) [compound 90], the Ki is 2600 nM.

With `COc1cc(C(=O)C(=O)N2CCCC[C@H]2C(=O)OC(CCCc2ccccc2)c2cccc(C(=O)c3cccnc3)c2)cc(OC)c1OC` (stereo partly shown) [compound 91], the Ki was 24 nM.

Regarding `COc1cc(C(=O)C(=O)N2CCCC[C@H]2C(=O)OC(CCCc2ccccc2)c2cccc(C(=O)c3cccnc3)c2)cc(OC)c1OC` (stereo partly shown) [compound 92], the Ki turned out to be 9 nM.

Take `COc1ccc(C(=O)C(=O)N2CCCC[C@H]2C(=O)OC(CCCc2ccccc2)c2cccc(OCc3ccncc3)c2)cc1OC` (stereo partly shown) [compound 93]: the Ki turned out to be 7.5 nM.

With `COc1cc(C(=O)C(=O)N2CCCC[C@H]2C(=O)OC(CCCc2ccccc2)c2cccc(C(=O)c3ccncc3)c2)cc(OC)c1OCc1ccccc1` (stereo partly shown) [compound 94], the Ki is 25 nM.

With `C=CCOc1c(OC)cc(C(=O)C(=O)N2CCCC[C@H]2C(=O)OC(CCCc2ccccc2)c2cccc(C(=O)c3ccncc3)c2)cc1OC` (stereo partly shown) [compound 95], the Ki came out at 3.6 nM.

As to `COc1ccc(C(=O)C(=O)N2CCCC[C@H]2C(=O)OC(CCCc2ccccc2)c2cccc(C(=O)c3ccncc3)c2)cc1OCc1ccccc1` (stereo partly shown) [compound 96], the Ki is 25 nM.

With `C=CCOc1cc(C(=O)C(=O)N2CCCC[C@H]2C(=O)OC(CCCc2ccccc2)c2cccc(C(=O)c3ccncc3)c2)ccc1OC` (stereo partly shown) [compound 97], the Ki came out at 17 nM.

With `COc1ccc(C(=O)C(=O)N2CCCC[C@H]2C(=O)OC(CCCc2ccccc2)c2cccc(C(=O)c3ccncc3)c2)cc1C/C=C/c1ccccc1` (stereo partly shown) [compound 98], the Ki is 380 nM.

With `COc1cc(C(=O)C(=O)N2CCCC[C@H]2C(=O)OC(CCCc2ccccc2)c2ccc(C(=O)c3ccncc3)cc2)cc(OC)c1OCc1ccccc1` (stereo partly shown) [compound 99], the Ki came to 15000 nM.

In the case of `COc1ccc(C(=O)C(=O)N2CCCC[C@H]2C(=O)OC(CCCc2ccccc2)c2ccc(C(=O)c3ccncc3)cc2)cc1OCc1ccccc1` (stereo partly shown) [compound 100], the Ki is > 5000 nM.

Consider `COc1ccc(C(=O)C(=O)N2CCCC[C@H]2C(=O)OC(CCCc2ccccc2)c2ccccc2)cc1OCc1ccccc1` (stereo partly shown) [compound 103], for which the Ki is 24000 nM.

As to `COc1cc(C(=O)C(=O)N2CCCC[C@H]2C(=O)OC(CCCc2ccccc2)c2ccccc2)cc(OC)c1OCc1ccccc1` (stereo partly shown) [compound 104], the Ki was 1700 nM.

As to `CC(C)(C)C(=O)C(=O)N1CCC[C@H]1C(=O)OC(CCCc1ccccc1)CCCc1cccnc1` (stereo partly shown) [compound 105], the Ki came to 340 nM.

Turning to `COc1cc(C(=O)C(=O)N2CCCC[C@H]2C(=O)OC(CCCc2cccnc2)CCCc2cccnc2)cc(OC)c1OC` [compound 106], the Ki was 3.7 nM.

On to `COc1cc(C(=O)C(=O)N2CCC[C@H]2C(=O)OC(COCc2ccccc2)COCc2ccccc2)cc(OC)c1OC` [compound 107], for which the Ki came to 75000 nM.

Regarding `COc1cc(C(=O)C(=O)N2CCC[C@H]2C(=O)OC(CCCc2cccnc2)CCCc2cccnc2)cc(OC)c1OC` [compound 108], the Ki was determined as 89 nM.

In the case of `CC(C)C(=O)C(=O)N1CCCC[C@H]1C(=O)OC(CCCc1cccnc1)CCCc1cccnc1` [compound 109], the Ki turned out to be 1500 nM.

As for `COc1cc(C(=O)C(=O)N2CCCC[C@H]2C(=O)OC(c2cc(OCc3ccncc3)c(OCc3ccncc3)c(OCc3ccncc3)c2)C(C)C)cc(OC)c1OC` (stereo partly shown) [compound 115], the Ki worked out at 0.39 nM.
